In PMC3164776 (Biochemistry, 2010):
“And” between values parts separate entries of the source, which are not always exact repeats. Equal entries are not always repeated. Where two headings read alike, the source gives them in different places. Each block holds one compound with its values, some of them ahead of it.

Experiments:
KB-V1 cells = settings: for effect on MDR phenotype: cytotoxicity of paclitaxel and vinblastine, Supplemental Information 2; for change of LD50 / resistance in presence of 5-CHInd: 10 μM 5-CHInd over 72 hours, Figure 4A
[1] = target: P-gp (MDCK-MDR1 monolayers) (Homo sapiens, UniProt P08183); assay: Monolayer efflux experiment, MDCK-MDR1 monolayers
Chain of P-gp (MDCK-MDR1 monolayers) (P08183 whole entry): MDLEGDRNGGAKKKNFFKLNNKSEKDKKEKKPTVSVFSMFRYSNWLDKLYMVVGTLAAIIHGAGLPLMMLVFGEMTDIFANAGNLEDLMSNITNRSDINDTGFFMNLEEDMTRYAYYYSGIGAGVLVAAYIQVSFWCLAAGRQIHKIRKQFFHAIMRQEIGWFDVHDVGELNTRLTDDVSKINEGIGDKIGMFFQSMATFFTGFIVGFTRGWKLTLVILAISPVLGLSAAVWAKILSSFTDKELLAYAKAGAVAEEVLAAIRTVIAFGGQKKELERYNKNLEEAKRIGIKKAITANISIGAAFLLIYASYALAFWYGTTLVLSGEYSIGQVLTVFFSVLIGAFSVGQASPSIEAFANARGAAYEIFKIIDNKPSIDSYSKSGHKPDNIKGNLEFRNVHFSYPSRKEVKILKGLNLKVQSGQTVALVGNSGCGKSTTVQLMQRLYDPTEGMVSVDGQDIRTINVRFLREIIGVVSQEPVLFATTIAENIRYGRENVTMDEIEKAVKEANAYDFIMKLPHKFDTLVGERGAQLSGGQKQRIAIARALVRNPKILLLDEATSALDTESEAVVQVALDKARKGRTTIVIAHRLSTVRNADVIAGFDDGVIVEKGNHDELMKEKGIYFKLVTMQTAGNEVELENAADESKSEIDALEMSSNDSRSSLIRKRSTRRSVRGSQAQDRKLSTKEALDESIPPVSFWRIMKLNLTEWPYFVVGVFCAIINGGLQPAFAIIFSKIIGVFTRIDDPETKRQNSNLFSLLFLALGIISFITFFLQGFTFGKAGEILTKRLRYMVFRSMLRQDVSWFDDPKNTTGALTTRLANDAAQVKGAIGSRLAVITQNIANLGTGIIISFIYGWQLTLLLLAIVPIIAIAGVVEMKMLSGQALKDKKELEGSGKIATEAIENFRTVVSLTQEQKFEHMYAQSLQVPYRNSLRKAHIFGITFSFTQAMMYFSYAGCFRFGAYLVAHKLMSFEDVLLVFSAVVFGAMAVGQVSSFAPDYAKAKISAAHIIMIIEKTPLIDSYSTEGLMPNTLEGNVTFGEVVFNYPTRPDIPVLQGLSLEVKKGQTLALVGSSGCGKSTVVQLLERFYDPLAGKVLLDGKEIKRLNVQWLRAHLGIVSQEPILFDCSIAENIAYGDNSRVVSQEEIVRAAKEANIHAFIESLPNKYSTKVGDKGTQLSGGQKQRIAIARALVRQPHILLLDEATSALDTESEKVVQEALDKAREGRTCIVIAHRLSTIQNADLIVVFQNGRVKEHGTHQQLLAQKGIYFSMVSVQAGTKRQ

KB3-1 cells = assay: MTT cytotoxicity assay in KB3-1 cells; format: cell-based
P-gp [2] = target: T1, P-gp (Homo sapiens, UniProt P08183); assay: P-gp ATPase assay, hydrolysis of [γ-32P]-ATP by P-gp membranes; format: biochemical
T1 sequence (P08183 whole entry): as above

MDCK monolayers = assay: Monolayer efflux experiment, MDCK monolayers; settings: substance alone (10 μM 5-CHInd, 3 μM rhodamine 123, 4 μM calcein-AM)
P-gp [3] = target: T1, P-gp; assay: PDSP cell-based screen: accumulation of calcein-AM in Caco-2 cells; settings: analogs of the screened nucleoside library
P-gp (MDR1) = P-gp (MDR1) (Homo sapiens, UniProt P08183); assay: Monolayer efflux experiment, MDCK-MDR1 monolayers; settings: dog
Chain of P-gp (MDR1) (P08183 whole entry): as above

[4] = Monolayer efflux experiment, MDCK monolayers; settings: dog
[5] = substance alone (10 μM 5-CHInd, 3 μM rhodamine 123, 4 μM calcein-AM), mean ± SEM

Compound: OC[C@H]1O[C@@H](n2ccc3cc(C4=CCCCC4)ccc32)C[C@@H]1O [5-CEInd, 5-cyclohexene indolyl 2′-deoxyribose]
effect on MDR phenotype (KB-V1 cells; KB-V1): no significant effects on MDR phenotype

Compound: OC[C@H]1O[C@@H](n2ccc3cc(C4CCCCC4)ccc32)C[C@@H]1O [5-CHInd, 5-cyclohexyl indolyl 2′-deoxyribose]
BL→AP/AP→BL (Peff ratio) [1, 5]: 11.1 and 11.1 ± 2.5 | LD50 (KB3-1 cells; KB3-1 MDR −/−, 72 hours post-treatment, MTT): 45 ± 3 µM | Ki (P-gp [2]): 6.5 nM | Km (P-gp [2]): 0.06 ± 0.01 µM | Vmax (P-gp [2]): 16 ± 0.2 nmol Pi/min/mg protein | fold by which Ki is lower than Km (P-gp [2]; Ki vs Km value of 60 nM): ~ 9 fold | maximal non-toxic dose (KB-V1 cells; 48 hour period): 50 µM | maximal non-toxic dose (KB-V1 cells; 72 hour period): 10 µM | LD50 (KB-V1 cells; KB-V1 (MDR positive), 72 hours post-treatment, MTT): 44 ± 5 µM | concentration at which cytotoxic (KB-V1 cells; MTT assay): greater than 50 μM | BL→AP/AP→BL (Peff ratio) (MDCK monolayers): 8.7 ± 1.3

interaction with P-gp (P-gp [3]): do not interact with P-gp
Compound: O=[N+]([O-])c1ccc2c(ccn2C2CC(O)C(CO)O2)c1 (stereo not shown) [5-NInd]

Compound: OC[C@H]1O[C@@H](n2ccc3cc(-c4ccccc4)ccc32)C[C@@H]1O [5-PhInd, 5-phenyl indolyl 2′-deoxyribose]
effect on MDR phenotype (KB-V1 cells; KB-V1): no significant effects on MDR phenotype

Compound: COc1cc2c(c(OC)c1OC)-c1ccc(OC)c(=O)cc1[C@@H](NC(C)=O)CC2 [Colchicine, reference compound]
Km (P-gp [2]): 37 ± 8 µM | change of LD50 / resistance in presence of 5-CHInd (KB-V1 cells; KB-V1): did not influence the LD50 values

Compound: COc1cccc2c1C(=O)c1c(O)c3c(c(O)c1C2=O)C[C@@](O)(C(=O)CO)C[C@@H]3O[C@H]1C[C@H](N)[C@H](O)[C@H](C)O1 [Doxorubicin, reference compound]
change of LD50 / resistance in presence of 5-CHInd (KB-V1 cells; KB-V1): cells become more resistant

Compound: CC(=O)O[C@H]1C(=O)[C@@]2(C)[C@H]([C@H](OC(=O)c3ccccc3)[C@]3(O)C[C@H](OC(=O)[C@H](O)[C@@H](NC(=O)c4ccccc4)c4ccccc4)C(C)=C1C3(C)C)[C@]1(OC(C)=O)CO[C@@H]1C[C@@H]2O [Paclitaxel, reference compound]
potentiating effect of 5-CHInd (KB3-1 cells; KB3-1, does not overexpress P-gp, Supplemental Information 1): not observed | change of LD50 / resistance in presence of 5-CHInd (KB-V1 cells; KB-V1): decreases | LD50 (KB-V1 cells; KB-V1, 48 hours, in presence of 50 μM 5-CHInd): 0.49 ± 0.03 µM | LD50 (KB-V1 cells; KB-V1, 48 hours, no treatment with 5-CHInd): 4.0 ± 0.24 µM

efflux ratio at 60 min, 3 μM (P-gp (MDR1)): 72.7 ± 15.3 | BL→AP/AP→BL (Peff ratio) [1, 5]: 72.7 | efflux ratio at 60 min, 3 μM [4]: 1.2 ± 0.2
Compound: COC(=O)c1ccccc1-c1c2ccc(=N)cc-2oc2cc(N)ccc12 [Rhodamine 123]

Compound: CC[C@]1(O)C[C@@H]2CN(CCc3c([nH]c4ccccc34)[C@@](C(=O)OC)(c3cc4c(cc3OC)N(C)[C@H]3[C@@](O)(C(=O)OC)[C@H](OC(C)=O)[C@]5(CC)C=CCN6CC[C@]43[C@@H]65)C2)C1 [Vinblastine, reference compound]
change of LD50 / resistance in presence of 5-CHInd (KB-V1 cells; KB-V1): cells become more resistant

Compound: Calcein-AM
BL→AP/AP→BL (Peff ratio) ([1]; 4 μM calcein-AM + 10 μM 5-CHInd): ~ 1 | BL→AP/AP→BL (Peff ratio) [1, 5]: 2940 ± 120 | BL→AP/AP→BL (Peff ratio) (MDCK monolayers): 2.6 ± 0.3
